The source of these data is paper PMC9101188, “Human α-Defensin-6 Neutralizes Clostridioides difficile Toxins TcdA and TcdB by Direct Binding” (International Journal of Molecular Sciences, 2022).

No end group written: not given here.

The subject of data set [1] is TcdB autoprotease domain. Kind of data set: In vitro autoprocessing of TcdB (InsP6-induced autoprotease activity). In kind it is biochemical, C. difficile VPI 10463. The following applies: NEM 1 mM; TcdB 2 µg, InsP6 1 mM; 1 h, 37 °C, pH 7.4 (n = 2). On the procedure: (§1) The flow rate was 25 µL/min. […] A representative gel is shown (n = 2). […] GAPDH served as the loading control. A representative Western blot is shown.
The effects of α-def-6 on TcdB autoprocessing by its intrinsic cysteine protease activity were analyzed. […] Inositol hexakisphosphate (1 mM, Santa Cruz Biotechnology, Dallas, TX, USA) was added to the samples to induce autoprocessing. N-Ethylmaleimide (1 mM, Sigma Aldrich by Merck KGaA, Darmstadt, Germany) served as positive control for the inhibition of TcdB-autoprocessing. The reactions were stopped by addition of a Laemmli buffer and heat denaturation (95 °C). For the analysis, the samples were electrophoresed on 8% SDS polyacrylamide gels, and proteins were visualized by Coomassie staining.

For data set [2], the system named is glucosyltransferase. As to conditions: control in UDP-Glo assay at 10 mM; ref [29]; cited from earlier work. As to the method: Based on the finding that TcdB directly binds to α-def-6 in vitro, a set of experiments was performed to investigate the consequences of this interaction for TcdB. Although α-def-6 and TcdB interact directly, the release of the glucosyltransferase domain by the autoprotease domain in the presence of inositol hexakisphosphate (InsP6) was not affected (Figure 1B).

Data set [3] has as its system zebrafish embryos. As to conditions: in vivo.
In data set [4] the test system is bacterial protein toxins. As to conditions: ref [51]; cited from earlier work. The text has this:
There is increasing evidence that α-def-6 represents an outlier among the α-defensins, which is also noticeable in the context of bacterial toxins. Anti-toxin activities have already been described for several α-defensins.

Data set [5] deals with TcdA, TcdB and CDT. The following applies: ref [25],[26]; cited from earlier work. The text has this:
(§2) The benchmark for treating CDIs is still the use of some specific antibiotics such as vancomycin, metronidazole or fidaxomicin [20]. More and more attention is also being paid to the direct inactivation of the secreted toxins, for example by using anti-toxin-antibodies such as bezlotoxumab or actoxumab. Following the approach of directly inactivating the secreted toxins and based on previous findings of our group and of others, we investigated the effects of human endogenous antimicrobial peptides on the C. difficile toxins TcdA and TcdB. Here, of particular interest is the group ...

Data set [6] has as its system TcdB. As to conditions: SPR, β-def-1 6 µM (control); pH 7.0, 25 °C, 25 µL/min, 4 min injection.
Description: (A) 2400 RUs of biotinylated TcdB were immobilized via streptavidin-biotin binding onto a streptavidin sensor chip, and α-def-6 (concentrations as indicated) was applied to the chip for 4 min followed by a dissociation phase with a flow of running buffer. A solution of 6 µM of α-def-6 was injected twice to assess reproducibility, and β-def-1 (6 µM) served as a control. The flow rate was 25 µL/min.
TcdB was biotinylated via EZ-Link^TM Sulfo-NHS-Biotin (Thermo Fisher Scientific, Waltham, MA, USA) according to the manufacturer’s protocol. Briefly, TcdB was incubated with Sulfo-NHS-Biotin for 30 min at room temperature (RT). To remove the excess non-reacted biotin, TcdB was rebuffered with a Zeba^TM Spin Desalting Column (Thermo Fisher Scientific, Waltham, MA, USA). The successful biotinylation was verified via Western blotting and detection with peroxidase-conjugated streptavidin (1:2500, F. Hoffmann-La Roche AG, Basel, Switzerland).
The binding of α-def-6 to biotinylated TcdB was analyzed via surface plasmon resonance spectroscopy (SPR) with a Reichert SPR7500DC SPR spectrometer (Reichert Technologies, Buffalo, NY, USA). All analytes were dialyzed in running buffer (10 mM HEPES, 150 mM NaCl, 50 µM EDTA, 0.005% (v/v) Tween®20, pH 7.0) beforehand. Experiments were performed with a flow rate of 25 µL/min at 25 °C. […]
Data set [7] deals with bacterial toxins including TcdB. The following applies: cited from earlier work.
The subject of data set [8] is TcdB glucosyltransferase. The data set can be described thus: UDP-Glo glucosyltransferase assay. It counts as biochemical, C. difficile VPI 10463. As to conditions: TcdB 200 pM, recombinant Rac1 5 µM, UDP-glucose 100 µM, 1 h, 37 °C, pH 7.5, luminescence (n ≥ 3). On the procedure:
as §1
UDP-Glo™ Glucosyltransferase assay with UDP-Glucose (Promega Corporation, Madison, WI, USA) was performed according to the manufacturer’s protocol. Briefly, TcdB (200 pM) was incubated in glucosylation buffer (50 mM HEPES, 100 mM KCl, 2 mM MgCl2, 1 mM MnCl2, 100 mg/L BSA, pH 7.5) with various concentrations of the respective inhibitors in a final volume of 40 µL. 5 µM recombinant Rac1 was included in the samples as a substrate. […] Castanospermine (10 mM, Santa Cruz Biotechnology, Dallas, TX, USA) served as control for inhibition of glucosyltransferase activity of TcdB. To stop the reaction, three times 10 µL of each sample were transferred to a white half area 96 well microplate (Greiner Bio-One International GmbH, Kremsmünster, Austria) combined with 10 µL of UDP Detection Reagent and mixed at 1000 rpm for 30 s on a plate shaker (Titramax 1000, Heidolph Instruments GmbH & Co. KG, Schwabach, Germany). Luminescence was recorded after 15–60 min via a Tecan infinite M1000 Pro plate reader (Tecan, Männdorf, Switzerland) with an integration time of 750 ms.

The subject of data set [9] is bacteria. As to conditions: ref [46]; cited from earlier work.
From the text: as §2, with “TcdB. […] The administration” for “TcdB. Here,”, “of α-def-6 protected human cells from TcdB, but also from” for “of particular interest is”, “the closely related TcdA and the clinically more relevant combination of both TcdA and TcdB. Exemplarily, the protective effect could be confirmed for TcdB in vivo using the zebrafish embryo” for “the group”

The test system of data set [10] is TcdB. As to conditions: ref [24]; cited from earlier work.

Consider `CCN1C(=O)C=CC1=O` [NEM, N-ethylmaleimide, reference compound], for which, in [1], the “autocatalytic processing of TcdB (effect of control inhibitor)” value is “prevented the autocatalytic processing of TcdB”.

Regarding `O[C@H]1[C@H](O)[C@@H](O)CN2CC[C@H](O)[C@H]12` [castanospermine], the inhibition of glucosyltransferase result in [2] is “established glucosyltransferase inhibitor”. Take Abamectin [reference compound]: the neurotoxicity result in data set [3] was “causes neurotoxicity”. For “α-defensin-1: human neutrophil peptide 1, α-defensin cited from earlier work [reference compound]”, the “destabilization of toxin secondary and tertiary structures (local unfolding)” value in data set [4] was “leads to the destabilization of secondary and tertiary structures”. Further, in data set [5], the “inactivation of TcdA, TcdB and CDT” value was “inactivate TcdA and CDT, in addition to TcdB”. Turning to “β-def-1: β-defensin used as control to exclude non-specific interactions; purchased from Pepta Nova (DHYNCVSSGGQCLYSACPIFTKIQGTCYRGKAKCCK; ends and bridges not checked; cysteine pairing not given here) [reference compound]”, the “interaction with immobilized TcdB, compared to α-def-6” value in data set [6] is “much weaker in combination with a faster washout”. Moreover, the “interaction with bacterial toxins including TcdB” value in data set [7] is given as “do not interact with bacterial toxins including TcdB”.

B1: α-def-5: structurally similar defensin; purchased from Pepta Nova (peptide, UniProt Q01523 20-94, looked up)
Defensin alpha 5: ESLQERADEATTQKQSGEDNQDLAISFAGNGLSALRTSGSQARATCYCRTGRCATRESLSGVCEISGRLYRLCCR
modifications: Defensin-5
notes: structurally similar defensin; purchased from Pepta Nova
For B1, the “inactivation of TcdA, TcdB and CDT” value in data set [5] is “inactivate TcdA and CDT, in addition to TcdB”. For the same molecule, the “inhibition of glucosyltransferase activity of TcdB” value in data set [8] is reported as “clear concentration-dependent reduction of glucosyltransferase activity”. In [9], the “biocidal / antimicrobial activity” value is “significant biocidal activity against invading pathogens”. Moreover, in [10], the “inhibition of glucosyltransferase and glucosylhydrolase activity of TcdB” value was “directly inhibits the glucosyltransferase and glucosylhydrolase activity of TcdB”.
